{"source": "patent US6465442B2", "about": "“Topical application of muscarinic and opioid agents for treatment of tinnitus” (priority 1999, dated 2002)", "key": {"[1]": {"assay": "Otic solution administered by drops to the affected ear of patients complaining of tinnitus", "format": "in vivo, human", "method": "A group of ten patients complaining of tinnitus were treated with an otic solution comprising about 500 μg/30 ml of neostigmine. One to two drops of the solution was administered to the affected ear about once every 4-6 hours. The patients reported relief within about 20 minutes after initial administration of the otic composition."}, "[2]": {"assay": "Otic solution administered by drops to the affected ear of patients complaining of tinnitus", "format": "in vivo, human", "conditions": "every 4-6 hrs."}, "[3]": {"conditions": "individual tinnitus patients, neostigmine 500 μg/30 cc otic solution, every 4-6 hrs."}, "[4]": {"conditions": "individual tinnitus patients, stadol 1 mg/30 cc otic solution"}, "[5]": {"conditions": "individual tinnitus patient, morphine 2 mg/30 cc otic solution"}}, "note": "Where “and” joins values, the source holds several entries; their conditions need not be identical. Identical values can stand only once."}
{"compound": "CN(C)C(=O)Oc1cccc([N+](C)(C)C)c1", "note": "[neostigmine]", "values": [{"measurement": "relief of the tinnitus symptoms reported by patients", "setting": "[1]; group of ten patients, about 500 μg/30 ml otic solution, one to two drops about once every 4-6 hours", "result": "significant relief"}, {"measurement": "time to relief after initial administration of the otic composition", "setting": "[1]; group of ten patients, about 500 μg/30 ml otic solution, one to two drops to affected ear", "result": "≤ 20", "unit": "min"}, {"measurement": "Results (improvement)", "setting": "[1]; [3]", "result": "90% and 80% (4×) and 70%"}, {"measurement": "Side Effects", "setting": "[1]; [3]", "result": "None"}]}
{"compound": "Oc1ccc2c(c1)[C@@]13CCCC[C@@]1(O)[C@@H](C2)N(CC1CCC1)CC3", "note": "[stadol, butorphanol]", "values": [{"measurement": "Results (improvement)", "setting": "[2]; [4]", "result": "60% and 80% (2×)"}, {"measurement": "Side Effects", "setting": "[2]; [4]", "result": "None"}]}
{"compound": "CN1CC[C@]23c4c5ccc(O)c4O[C@H]2[C@@H](O)C=C[C@H]3[C@H]1C5", "note": "[morphine]", "values": [{"measurement": "Results (improvement)", "setting": "[2]; [5]", "result": 60, "unit": "%"}, {"measurement": "Side Effects", "setting": "[2]; [5]", "result": "None"}]}
